Bounds are passed on as bounds.

On to `Brc1ccc2nc(-c3ccccc3)cn2c1`, for which the melting point lay within 192 to 194 °C. With `N#CC1(c2ccccc2)CCN(c2ccn(CC3CC3)c(=O)c2Cl)CC1`, the melting point came out at 174 °C.

As for `Nc1cccc(C=Cc2ccc(O)cc2)n1`, the melting point was 224 to 225 °C.

As for `ON=Cc1cn(C(c2ccccc2)(c2ccccc2)c2ccccc2)c(F)n1`, the melting point lay within 147 to 149 °C. The compound `CC(=O)NC1CCC(=O)c2sccc21` (stereo not drawn) showed a melting point of 160 to 164 °C. `CCCCCCCCc1ccc(OC(=O)c2ccc([C@H]3CC[C@H](CCC)C3)cc2)cc1` (relative stereo) yielded a melting point of 36 °C. `O=C(Nc1ccc(-c2ncno2)cc1)Oc1ccc([N+](=O)[O-])cc1` yielded a melting point of 210 to 212 °C.

Consider `CC(C)(C)OC(=O)NCc1cccc(OCCC2Oc3ccccc3N(Cc3ccc(Cl)cc3)C2=O)c1` (stereo not drawn), for which the melting point was in the range of 114 to 116 °C.

For `CC1(C)CC2(CC(C)(C)c3ccc(Oc4cccc(N)c4)cc32)c2cc(Oc3cccc(N)c3)ccc21`, the melting point turned out to be 206 °C. `CC(Br)C(=O)N1C(=O)c2ccccc2OC12CCCCC2` (stereo not drawn) had a melting point of 74 to 76 °C.

`Nc1c(F)c(N2CCC(=NO)C2)c(F)c2c1c(=O)c(C(=O)O)cn2C1CC1` showed a melting point of 273 to 276 °C. In turn, `O=S(=O)(Nc1ccc(Cl)c(F)c1)c1ccccc1` gave a melting point of 115 to 116 °C. To `O=C(Nc1ccc(Oc2ccnc(N3CCC3)n2)c2ccccc12)c1cc(F)cc(N2CCOCC2)c1` belongs 196 to 197 °C; to `CCCC[C@H](NC(=O)[C@H](CC(C)C)NC(=O)c1cccc(F)c1F)C(=O)CSCc1ccco1`, 120 to 122 °C. To `CC1(C#N)C(=O)C2=C(c3ccccc3)NC(=O)C2=C1c1ccccc1` (stereo not drawn) belongs 299 to 301 °C; to `N[C@H](Cc1cccc(C(=O)c2ccccc2)c1)C(=O)O`, 230 to 231 °C. Under `COc1ccc(C(C)(O)c2ocnc2C)cc1` (stereo not drawn) stands 115 to 116 °C; under `O=C(O)c1ccc(Cl)cc1Nc1ccc(O)cc1`, 164 to 165 °C; under `CC(C)(C)c1ccc2c(c1)[C@H]1Cc3ccccc3[C@H]1N2` (relative stereo), 103 to 105 °C. Compound `CCC(Oc1ccc(Cl)c(C(F)(F)F)c1)C(=O)NCc1ccccc1` (stereo not drawn) gave a melting point of 93 to 95 °C. `Cc1cc(C)nc(SSc2ccc([N+](=O)[O-])cc2C(Cl)(Cl)Cl)n1` showed a melting point of 151 °C. Compound `Cc1ccc(C(C)C)c2c1CC(NNc1ncnc3c1ncn3C1OC(CO)C(O)C1O)CO2` (stereo not drawn) yielded a melting point of 98 to 101 °C. In turn, `CCOC(=O)c1cnc(CC)nc1NCc1ccc(-c2ccccc2-c2nnn[nH]2)cc1` registered a melting point of 114 to 116 °C. `CCOc1ccc(-c2ccc3c(c2)C=C(C(=O)OC)CCN3)cc1` registered a melting point of 157 to 158 °C.

Turning to `NNC(=O)c1cc2cc(Cl)ccc2s1`, the melting point lay within 90 to 91 °C. The compound `CCCc1c(C(C)=O)ccc(OCc2nc3nccnc3c(=O)[nH]2)c1O` displayed a melting point of 224 to 226 °C. The compound `CSN=C1C(=O)N2C1SC(C)(C)C2C(=O)OCC(Cl)(Cl)Cl` (stereo not drawn) had a melting point of 129 to 130 °C. The compound `CCCc1cc(C=CC(=O)c2ccc(O)cc2)c(OC)cc1O` displayed a melting point of 126 to 128 °C. `CNC(=O)[C@H](CO[Si](C)(C)C(C)(C)C)NC(=O)Nc1n[nH]c(=S)s1`: the melting point is 213 to 214 °C.

Compound `CO[C@@H]1COCC[C@]1(OC)c1cccc(OCc2ccc3ccccc3c2)c1` (racemic) showed a melting point of 86 to 88 °C. For `CCCCCCSc1ssc(=S)c1-c1cc(C(C)(C)C)c(O)c(C(C)(C)C)c1`, the melting point came to 110 °C. The compound `c1nc(Nc2ccc(N3CCOCC3)cc2)cc(NC2CCCCC2)n1` gave a melting point of 239 to 240 °C.

In the case of `CCC1=NN=C(c2ccc(OC)c(OC)c2)c2cc(OC)c(OC)cc2C1CC` (stereo not drawn), the melting point lay within 142 to 144 °C.

Compound `CCOC(=O)c1cn(Cc2ccc(OCc3ccccc3)cc2)nc1OCc1ccc(OCc2ccccc2)cc1` had a melting point of 124 to 125 °C. `N#Cc1cc2c(nc1N1CCCCCC1)CCCC2=O` came in with a melting point of 76 to 78 °C. `O=C1C2=C(NC(=O)C3(N2)OCCO3)c2ccccc21` registered a melting point of 296 to 301 °C. Under `CCCC(=O)N[C@H]1CC[C@H](CCN2CCN(c3nccc4c3CCO4)CC2)CC1` stands 191 °C.

In turn, `Cc1ccc(S(=O)(=O)Nc2ccc([C@@H](C)C(N)=O)cc2)cc1` came in with a melting point of 138 to 140 °C. For `Cc1cccc(N2CCN(CCc3ccc(N4CCCNC4=O)cc3)CC2)c1`, the melting point came out at 213 °C. Under `CC1(C2CCCC2)Cc2cc(OCC(=O)O)c(Cl)c(Cl)c2C1=NO` (stereo not drawn) stands 230 °C; under `Cc1ccc(CSc2nc3cc4c(cc3[nH]2)OCCO4)nc1`, 155 to 156 °C; under `O=C1C(=Cc2cccc3ccccc23)CCc2cc(OCCn3ccnc3)ccc21`, 147 to 148 °C.

`CC1CC2C3CCC4CC(O)CCC4(C)C3C(O)CC2(C)C1C1(C)OCCO1` (stereo not drawn) showed a melting point of 109 to 111 °C. Turning to `COC(=O)c1ccc2oc(CCCCCc3cc4cc(C(=O)OC)ccc4o3)cc2c1`, the melting point fell in the range of 83 to 85 °C. Consider `Cn1cc(C2=C(c3c4n(c5ccccc35)CCC4)C(=O)NC2=O)c2ccccc21`, for which the melting point is 260 to 270 °C. Consider `O=C1Nc2cc(Cl)cc(Cl)c2C1=O`, for which the melting point lay in the range of 228 to 230 °C. `O=P(Cc1ccccc1)(C1CCCCC1)C1CCCCC1` showed a melting point of 147 to 149 °C. To `Cc1cc(NC(=O)N(C)C)cc(C)c1S(=O)(=O)C[N+](=O)[O-]` belongs 205 to 206 °C; to `Cn1c(CCCO)nc2cccnc21`, over 300 °C; to `CC(=O)OC1COC(N)C(OC(C)=O)C1OC(C)=O` (stereo not drawn), 148 to 149 °C. On to `CCc1nc(-c2ccc(F)cc2)c(-c2ccc(S(C)(=O)=O)cc2)s1`, for which the melting point lay in the range of 156 to 157 °C. In turn, `C#CCn1c(C(F)(F)F)c(C(=O)OCC)oc1=O` showed a melting point of 72 °C. `COc1ccc(C2CNC(=O)C2)cc1OC(C)C(O)CN1CCN(c2ccccc2)CC1` (stereo not drawn) showed a melting point of 116 to 118 °C. The compound `COc1ccc(C(=O)c2cc(F)cc(F)c2)cc1` returned a melting point of 90 °C. Under `NS(=O)(=O)c1cc2c3c(ccc2cc1[N+](=O)[O-])N(C(=O)C(F)(F)F)CC3CCl` (stereo not drawn) stands 192 to 195 °C; under `COc1ccc(NC(=O)C(=O)c2c3n(c4ccccc24)CCNCC3)cc1Cl`, 221 to 223 °C.

Consider `CC(C)(C)OC(=O)N1CCCC(Nc2cc(Cl)n[nH]c2=O)C1` (stereo not drawn), for which the melting point lay in the range of 195 to 196 °C. As to `CC(=O)c1cc(Cc2ccccc2)c(O)c2ccccc12`, the melting point was 139 to 141 °C. Compound `CN1CCN(c2ccccc2CC2CCN(c3ccccc3)C2=O)CC1` (stereo not drawn) came in with a melting point of 104 to 106 °C. For `CC(C)(C)[S@](=O)N1CCCC[C@@H]1c1ccccc1`, the melting point was 45 to 50 °C. With `OC(CN1CC=C(c2c[nH]c3ccccc23)CC1)C1COc2ccccc2O1` (stereo not drawn), the melting point came to 177 °C. `Cc1cc(-c2nc3ccccc3c(=O)n2-c2ccc(Br)cc2)cc(C)c1OCCO`: the melting point fell in the range of 164 to 165 °C. Regarding `CCOC(=O)c1c(-c2ccc(F)cc2)c2n(c1C(C)C)CCCC2`, the melting point was in the range of 85.5 to 86.5 °C.

These data come from a melting point compilation (Tetko et al.; mined from patent text by program, amines drawn as free bases though some values may be those of a salt).
